Consider 9 molecules from patent publication US20040048369A1, “Control of inward-rectifier K+ ion channels” (priority 2002, published 2004).

The Kd is the concentration at which binding is half-saturated.

Read-outs that look alike come from different tables or passages of the source.

The target in data set [1] is T1, IRK1 channels (Mus musculus, UniProt P35561).
T1 construct: expressed in transfected cells; host or cells: Xenopus laevis oocytes injected with IRK1 cRNA; inside-out patches
T1 sequence (P35561 1-428): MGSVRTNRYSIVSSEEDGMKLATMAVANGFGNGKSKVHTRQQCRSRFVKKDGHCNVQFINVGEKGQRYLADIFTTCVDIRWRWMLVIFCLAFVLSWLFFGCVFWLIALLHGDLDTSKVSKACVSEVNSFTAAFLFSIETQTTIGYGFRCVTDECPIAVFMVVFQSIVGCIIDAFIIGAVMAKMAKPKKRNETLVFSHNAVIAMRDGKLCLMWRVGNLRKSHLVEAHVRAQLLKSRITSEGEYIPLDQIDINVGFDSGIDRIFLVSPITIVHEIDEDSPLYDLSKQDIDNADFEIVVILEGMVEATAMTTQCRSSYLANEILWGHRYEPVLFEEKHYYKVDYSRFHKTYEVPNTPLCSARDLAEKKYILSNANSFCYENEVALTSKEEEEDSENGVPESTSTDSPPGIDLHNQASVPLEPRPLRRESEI
The data set is described as follows: Block of IRK1 currents by intracellular chemicals, inside-out patches of Xenopus oocytes injected with IRK1 cRNA. The settings on record: for inward rectification with intracellular metal ion chelator: each at 5 mM, pH 7.6, phosphate buffer. It is filed as cell-based. The procedure: IRK1 cDNA (Kubo et al., 1993) was cloned into the pGEM-Hess plasmid (IRK1-pGEMHess construct, provided by J. Yang). RNA was synthesized using T7 polymerase (Promega Corp., Madison, Wis.) from Nhe1-linearized cDNAs. Oocytes harvested from Xenopus laevis (Xenopus One, Ann Arbor, Mich.) were incubated in a solution containing NaCl, 82.5 mM; KCI, 2.5 mM; MgCl2, 1.0 mM; HEPES (pH 7.6), 5.0 mM and collagenase, 2-4 mg/ml. The oocyte preparation was agitated at 80 rpm for 60-90 minutes. It was then rinsed thoroughly and stored in a solution containing NaCl, 96 mM; KCl, 2.5 mM; CaCl2, 1.8 mM; MgCl2, 1.0 mM; HEPES (pH 7.6), 5 mM and gentamicin, 50 μg/ml. Defolliculated oocytes were selected and injected with RNA at least 2 and 16 hours, respectively, after collagenase treatment. All oocytes were stored at 18° C.
(§1) IRK1 currents were recorded from inside-out membrane patches of Xenopus oocytes (injected with IRK1cRNA) with an Axopatch 200B amplifier (Axon Instruments, Inc., Foster City, Calif.), filtered at 5 kHz, and sampled at 25 kHz using an analog-to-digital converter (DigiData 1200, Axon Instruments) interfaced with a personal computer. pClamp6 software (Axon Instruments) was used to control the amplifier and acquire the data. During current recording, the voltage across the membrane patch was first hyperpolarized from the 0 mV holding potential to −100 mV, and then stepped to various test voltages, or stepped directly from the holding potential. […] Background leak current correction was carried out as previously described (Lu and MacKinnon, Nature 371:243-246 (1994); Guo and Lu, 2000a). To effectively perfuse the patch, the tip of the patch pipette (3 MΣ) was immersed in a stream of intracellular solution exiting one of ten glass capillaries (ID=0.2 mm) mounted in parallel.
All recording solutions contained 100 mM K^+ contributed by KCl, K2EDTA, K2HPO4, KH2PO4, and KOH. The phosphate-buffered intracellular solution contained 5 mM K2EDTA (unless specified otherwise), and 10 mM “K2HPO4+KH2PO4” in a ratio yielding the desired pH, and sufficient KCl to bring total K^+ concentration to 100 mM (Guo and Lu, 2000a). The HEPES-buffered intracellular solution, as used in FIG. 3, contained (100 mM K^+ (Cl^−+OH^−), 5 mM EDTA and 10 mM HEPES, pH 7.2 (adjusted with KOH). The HEPES-buffered extracellular solution contained 100 mM K^+ (Cl^−+OH^−), 0.3 mM CaCl2, 1.0 mM MgCl2, and 10 mM HEPES, pH 7.6 (adjusted with KOH). In the phosphate-buffered extracellular solution, HEPES was replaced by an equal concentration of “K2HPO4+KH2PO4” in a ratio yielding pH 7.6. The divalent cation-free extracellular solution contained 5 mM EDTA. All chemicals were purchased from Fluka Chemical Corp.
In all cases the intracellular solutions contained 100 mM K^+, 5 mM EDTA and 10 mM phosphate (pH 7.6) in addition to the tested chemicals, while the extracellular solution contained 100 mM K^+, 0.3 mM Ca^2+, 1 mM Mg^2+, 10 mM phosphate (pH 7.6). The currents were corrected for background current.

The target in data set [2] is T1, IRK1 channels. Put plainly: Relaxation/block of inward IRK1 currents by extracellular chemicals, inside-out patches. The conditions noted are these: 10 mM HEPES, 3 μM HEP or 0.3 μM piperazine. It is filed as cell-based. The procedure: as §1
The phosphate-buffered intracellular solution contained 5 mM K2EDTA (unless specified otherwise), and 10 mM “K2HPO4+KH2PO4” in a ratio yielding the desired pH, and sufficient KCl to bring total K^+ concentration to 100 mM (Guo and Lu, 2000a). The HEPES-buffered intracellular solution, as used in FIG. 3, contained (100 mM K^+ (Cl^−+OH^−), 5 mM EDTA and 10 mM HEPES, pH 7.2 (adjusted with KOH). The HEPES-buffered extracellular solution contained 100 mM K^+ (Cl^−+OH^−), 0.3 mM CaCl2, 1.0 mM MgCl2, and 10 mM HEPES, pH 7.6 (adjusted with KOH). In the phosphate-buffered extracellular solution, HEPES was replaced by an equal concentration of “K2HPO4+KH2PO4” in a ratio yielding pH 7.6. The divalent cation-free extracellular solution contained 5 mM EDTA. All chemicals were purchased from Fluka Chemical Corp.
Since solutions in the quoted study were HEPES buffered, currents elicited with the voltage protocol used to produce the data in FIG. 12 were evaluated with no added divalent cations in the extracellular solution to determine whether the current relaxation was due to the use of extracellular HEPES.
The channel block associated with extracellular HEPES was examined to determine whether it could also be caused by residual contaminants. Intra- and extracellular solutions were buffered with 10 mM phosphate. […] The ratio of currents at the end and the beginning of voltage pulses (Iend/Ibgn) was plotted against membrane voltage.

Data set [3] deals with T1, IRK1 channels. The settings on record: 2000b, cited from earlier work.
For a further data set, the target named is Kir2.1 (Homo sapiens, UniProt P63252). The conditions noted are these: 100 μM; cited from earlier work.
Another data set deals with Shaker channel (Drosophila melanogaster, UniProt P08510). The conditions noted are these: 100 μM; cited from earlier work.
The conditions of data set [4]: Goodman & Gilman's; cited from earlier work.
The next data set addresses Kir1.1 (Homo sapiens, UniProt P48048). The conditions noted are these: 100 μM; cited from earlier work.
Data set [5] concerns Kir2.1 (E224 and E299 replaced with neutral ones). The settings on record: 100 μM; cited from earlier work.
The mark [6] stands for this setting: intracellular blocker, Kd at 0 mV, mean±sem, read-out: Kd (0 mV), fit of the Woodhull equation.

Kir1.1, sequence (P48048 whole entry): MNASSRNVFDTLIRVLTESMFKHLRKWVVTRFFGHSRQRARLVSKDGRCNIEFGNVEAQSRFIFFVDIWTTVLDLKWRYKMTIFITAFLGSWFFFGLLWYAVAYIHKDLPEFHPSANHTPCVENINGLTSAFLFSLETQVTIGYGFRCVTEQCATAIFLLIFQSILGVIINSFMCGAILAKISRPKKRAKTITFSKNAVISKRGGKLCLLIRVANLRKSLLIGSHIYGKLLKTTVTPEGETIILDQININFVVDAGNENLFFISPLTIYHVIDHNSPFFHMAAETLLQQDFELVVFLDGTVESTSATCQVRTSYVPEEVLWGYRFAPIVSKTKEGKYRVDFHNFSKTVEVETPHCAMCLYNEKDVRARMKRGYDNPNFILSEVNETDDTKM
Kir2.1, sequence (P63252 whole entry): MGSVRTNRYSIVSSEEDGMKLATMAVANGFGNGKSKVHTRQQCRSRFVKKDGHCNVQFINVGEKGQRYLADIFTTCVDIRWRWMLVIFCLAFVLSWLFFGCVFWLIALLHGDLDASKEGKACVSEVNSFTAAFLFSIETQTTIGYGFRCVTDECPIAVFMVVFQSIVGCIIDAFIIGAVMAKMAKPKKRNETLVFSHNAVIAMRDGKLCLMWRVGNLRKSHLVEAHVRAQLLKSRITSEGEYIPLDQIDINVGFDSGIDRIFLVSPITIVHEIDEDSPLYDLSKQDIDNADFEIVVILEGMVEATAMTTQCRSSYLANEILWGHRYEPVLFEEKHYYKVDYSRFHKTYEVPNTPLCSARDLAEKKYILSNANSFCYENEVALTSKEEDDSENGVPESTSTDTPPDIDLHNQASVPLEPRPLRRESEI
Shaker channel, sequence (P08510 whole entry): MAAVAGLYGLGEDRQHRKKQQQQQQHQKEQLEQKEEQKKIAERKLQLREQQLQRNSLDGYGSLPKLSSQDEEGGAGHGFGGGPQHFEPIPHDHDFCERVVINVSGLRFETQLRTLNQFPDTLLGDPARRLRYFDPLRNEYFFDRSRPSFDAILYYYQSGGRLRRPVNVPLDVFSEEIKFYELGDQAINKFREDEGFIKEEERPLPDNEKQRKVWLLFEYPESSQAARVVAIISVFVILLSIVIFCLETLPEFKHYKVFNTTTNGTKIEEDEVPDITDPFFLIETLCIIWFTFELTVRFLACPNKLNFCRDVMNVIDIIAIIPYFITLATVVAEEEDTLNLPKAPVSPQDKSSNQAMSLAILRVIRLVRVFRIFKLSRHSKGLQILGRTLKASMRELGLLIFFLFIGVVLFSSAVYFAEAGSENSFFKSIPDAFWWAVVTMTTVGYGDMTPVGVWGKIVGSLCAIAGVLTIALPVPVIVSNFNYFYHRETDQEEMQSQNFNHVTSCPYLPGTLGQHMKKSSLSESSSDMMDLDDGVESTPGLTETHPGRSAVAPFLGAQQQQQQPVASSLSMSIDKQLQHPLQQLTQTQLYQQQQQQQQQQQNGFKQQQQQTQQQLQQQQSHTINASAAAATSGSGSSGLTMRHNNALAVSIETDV

Regarding `O=C(O)CN(CC(=O)O)C1CCCCC1N(CC(=O)O)CC(=O)O` (stereo not drawn) [CDTA, cyclohexane 1,2-diaminetetraacetic acid], at IRK1 channels [1], the “inward rectification with intracellular metal ion chelator” value (“inward rectification” for short) is recorded as “more pronounced”.

On to `O=C(O)CN(CCN(CC(=O)O)CC(=O)O)CC(=O)O` [EDTA, ethylene diamine tetraacetic acid], for which the “inward rectification” value at IRK1 channels [1] was “least rectification”.

Consider `O=C(O)CN(CCOCCOCCN(CC(=O)O)CC(=O)O)CC(=O)O` [EGTA, ethylene glycol bis(β-aminoethyl ether) N,N,N′,N′-tetraacetic acid], for which the “inward rectification” value on IRK1 channels [1] was “more pronounced”.

For `OCCN1CCNCC1` [HEP, hydroxyethyl piperazine], the “inward current relaxation / channel block by extracellular chemical” value on IRK1 channels [2] (20 mM extracellular K+) was “blocked the channels”. Further, the “relative potency of channel block (qualitative)” value on IRK1 channels [1] (10 mM HEPES, 3 μM HEP, 0.3 μM piperazine, intracellular) is given as “much more potent”. In addition, the “Z (valence), fit of the Woodhull equation” value (“Z (valence), fit” for short) on IRK1 channels [1] (intracellular blocker) is 1.09±0.03. Moreover, the Kd at IRK1 channels [1] (setting [6]) is 2970 ± 160 µM.

Consider `O=S(=O)(O)CCN1CCN(CCO)CC1` [HEPES, 4-(2 hydroxyethyl)-1-piperazineethanesulfonic acid], for which the “inward current relaxation / channel block by extracellular chemical” value on IRK1 channels [2] (20 mM extracellular K+) is “prominent inward current relaxation”; at IRK1 channels [2] (100 mM extracellular K+) it was “little or no relaxation”. Besides, the “Z (valence), fit” value at IRK1 channels [1] (intracellular blocker) came out at 1.02±0.02.

`[Mg+2]` [Mg^2+]: the Kd at IRK1 channels [1] (intracellular Mg2+, FIG. 7B, read-out: Kd (0 mV), fit of the Woodhull equation to the Mg2+-inhibition curve) worked out at 17 µM. The “Z (valence), fit” value at IRK1 channels [1] (intracellular blocker) is recorded as 1.1.

As to `NCCN` [ethylenediamine], the “potency of channel block relative to EDTA” value at IRK1 channels [1] (0.1 μM ethylenediamine versus 30 mM EDTA, intracellular) is recorded as > 10,000 fold. Moreover, at IRK1 channels [3] (Guo and Lu), the “Z (valence)” value is listed as 2. Also, the Kd at IRK1 channels [3] (Guo and Lu, read-out: Kd (0 mV)) is 1400 µM.

With `C1CNCCN1` [piperazine], at Kir2.1, the “inhibition of Kir2.1” value was “dramatically inhibits”. For the same molecule, the “inward current relaxation / channel block by extracellular chemical” value at IRK1 channels [2] (20 mM extracellular K+) is reported as “blocked the channels”. The “effect on Shaker channel” value at Shaker channel is listed as “no effects”. In addition, in data set [4], the “adverse effects attending use” value was “Occasional gastrointestinal upset, transient neurological effects, and urticarial reaction”; the “laboratory studies on patients receiving treatment for several days” value is “no abnormality”; the use during pregnancy entry was “without ill effect”. Moreover, the “effect on Kir1.1” value on Kir1.1 is given as “no effects”. Moreover, the “sensitivity of mutant Kir2.1” value in data set [5] is listed as “practically insensitive”. In addition, the “Z (valence), fit” value at IRK1 channels [1] (intracellular blocker) came to 1.08±0.02. Moreover, the Kd at IRK1 channels [1] (setting [6]) turned out to be 270 ± 40 µM.

Consider `NCCCNCCCCNCCCN` [spermine], for which the “effective valence of channel block” value at IRK1 channels [3] (Guo and Lu 2000a) was approximately 5. The Kd at IRK1 channels [3] (Guo and Lu 2000a, read-out: Kd (0 mV) for binding of fully protonated spermine) was approximately 0.1 µM.
